Results published in patent publication US8415469B2, “Compounds and methods for kinase modulation, and indications therefor” (Plexxikon Inc., priority 2005, dated 2013).

Columns and labels:
Type in all cases: biochemical
Ret = target: T1, Ret (Homo sapiens, UniProt P07949); assay: AlphaScreen kinase assay, Ret; details: read-out: IC50, activity toward kinase Ret
T1 construct: P1378.pET-SF BI-PTP RET H661-R1012 HIS; made in house
T1 sequence (P07949 with tags, fused parts or gaps): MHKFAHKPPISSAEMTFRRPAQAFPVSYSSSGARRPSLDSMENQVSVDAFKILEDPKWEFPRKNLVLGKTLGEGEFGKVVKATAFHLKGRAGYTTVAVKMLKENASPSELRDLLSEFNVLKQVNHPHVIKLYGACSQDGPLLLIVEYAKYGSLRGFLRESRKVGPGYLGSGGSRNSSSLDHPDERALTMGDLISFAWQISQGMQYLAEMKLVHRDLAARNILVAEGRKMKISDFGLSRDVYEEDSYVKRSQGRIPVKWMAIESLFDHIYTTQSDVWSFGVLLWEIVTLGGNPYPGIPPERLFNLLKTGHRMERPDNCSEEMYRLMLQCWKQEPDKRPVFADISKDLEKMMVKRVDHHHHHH

Itk = target: T2, Itk (Homo sapiens, UniProt Q08881); assay: AlphaScreen kinase assay, Itk; details: read-out: IC50, activity toward kinase Itk
T2 sequence (Q08881 1-620): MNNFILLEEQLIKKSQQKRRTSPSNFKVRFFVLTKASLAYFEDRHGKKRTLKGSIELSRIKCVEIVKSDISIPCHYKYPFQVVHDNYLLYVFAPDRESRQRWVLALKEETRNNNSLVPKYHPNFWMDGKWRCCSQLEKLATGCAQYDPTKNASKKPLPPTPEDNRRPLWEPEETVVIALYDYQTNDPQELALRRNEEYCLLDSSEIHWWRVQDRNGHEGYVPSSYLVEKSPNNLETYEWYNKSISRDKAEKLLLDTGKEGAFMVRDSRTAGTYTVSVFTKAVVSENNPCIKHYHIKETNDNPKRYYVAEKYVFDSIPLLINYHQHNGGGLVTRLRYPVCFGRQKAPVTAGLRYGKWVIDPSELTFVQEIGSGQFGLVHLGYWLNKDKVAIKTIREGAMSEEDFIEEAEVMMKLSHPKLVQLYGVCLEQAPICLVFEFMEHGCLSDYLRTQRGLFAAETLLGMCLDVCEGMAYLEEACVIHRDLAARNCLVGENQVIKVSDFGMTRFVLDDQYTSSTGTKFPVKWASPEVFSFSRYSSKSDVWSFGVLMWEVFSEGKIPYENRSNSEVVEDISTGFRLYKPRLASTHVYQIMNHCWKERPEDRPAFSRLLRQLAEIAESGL
Description: AlphaScreen assay was used to screen additional kinases. The assay is similarly dependent on the phosphorylation of a peptide substrate. In this assay, an antibody that recognizes phosphorylated substrate is bound to an acceptor bead. The peptide substrate is attached to biotin, which binds to a donor head that contains streptavidin. Thus phosphorylated substrate is bound by antibody and streptavidin, bringing the donor and acceptor heads into close proximity when kinase is not inhibited. The donor produces singlet oxygen which results in emission from the acceptor when they are in close proximity. Conversely, when kinase is inhibited, the donor and acceptor beads are not associated and the emission from the acceptor is reduced.
AlphaScreen assays were done using compounds dissolved in DMSO to a concentration of 20 mM. The compounds were diluted accordingly to the desired final concentrations in each sample well, using 1:3 serial dilution for a total of 8 concentration points.

c-Raf-1 = target: T3, c-Raf-1 (Homo sapiens, UniProt P04049); assay: AlphaScreen kinase assay, c-Raf-1; details: read-out: IC50, activity toward kinase c-Raf-1
T3 construct: purchased Upstate Biotechnology

B-Raf V600E = target: T4, B-Raf V600E (Homo sapiens, UniProt P15056, V600E); assay: AlphaScreen kinase assay, B-Raf V600E; details: read-out: IC50, activity toward kinase B-Raf V600E
T4 construct: P4254. pFastBacBD-CDC37 BRAF D437-K722-X, V600E; His6 with pFastBac HT leader (TEV site) (N); made in house; host or cells: Sf9 (baculovirus; chaperone CDC37 co-expressed)
T4 sequence (P15056 with tags, fused parts or gaps V600E): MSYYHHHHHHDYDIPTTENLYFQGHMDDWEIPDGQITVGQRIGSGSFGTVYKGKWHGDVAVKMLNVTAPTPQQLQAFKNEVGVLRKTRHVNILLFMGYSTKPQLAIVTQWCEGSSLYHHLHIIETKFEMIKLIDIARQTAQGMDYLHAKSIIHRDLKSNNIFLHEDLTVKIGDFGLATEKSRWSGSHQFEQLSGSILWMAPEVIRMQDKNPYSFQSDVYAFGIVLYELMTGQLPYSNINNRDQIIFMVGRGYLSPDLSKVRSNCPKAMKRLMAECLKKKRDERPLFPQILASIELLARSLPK

Zap70 = target: T5, Zap70 (Homo sapiens, UniProt P43403); assay: AlphaScreen kinase assay, Zap70; details: read-out: IC50, activity toward kinase Zap70
T5 construct: P1868.pFastBac1 ZAP70 D327-G606 HIS, WT; His7 (HHHHHHH) (C); made in house
T5 sequence (P43403 with tags, fused parts or gaps): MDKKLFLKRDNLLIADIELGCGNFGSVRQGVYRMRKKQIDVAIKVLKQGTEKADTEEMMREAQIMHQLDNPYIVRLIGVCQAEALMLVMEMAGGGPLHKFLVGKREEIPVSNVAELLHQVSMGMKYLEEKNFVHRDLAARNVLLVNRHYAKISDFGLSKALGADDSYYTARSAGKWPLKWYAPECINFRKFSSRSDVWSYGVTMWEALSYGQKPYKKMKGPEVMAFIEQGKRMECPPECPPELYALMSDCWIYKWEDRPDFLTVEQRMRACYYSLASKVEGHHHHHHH
Method in brief: (§1)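 Emission from acceptor beads reports phosphorylated biotin-peptide bridging antibody-coated acceptor and streptavidin donor beads; loss of signal reflects kinase inhibition. Eight-point, threefold dilution series prepared from 20 mM DMSO stocks.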

Met = target: T6, Met (Homo sapiens, UniProt P08581); assay: AlphaScreen kinase assay, Met; details: read-out: IC50, activity toward kinase Met
T6 construct: P1818.pETN6 BI-PTP MET G1056-G1364-X WT; His6 (N); made in house; host or cells: E. coli (PTP1B co-expressed)
Method in brief: as §1

IGF1R = IGF1R (Homo sapiens, UniProt P08069); assay: AlphaScreen kinase assay, IGF1R; details: read-out: IC50, activity toward kinase IGF1R
Sequence of IGF1R (P08069 31-1367): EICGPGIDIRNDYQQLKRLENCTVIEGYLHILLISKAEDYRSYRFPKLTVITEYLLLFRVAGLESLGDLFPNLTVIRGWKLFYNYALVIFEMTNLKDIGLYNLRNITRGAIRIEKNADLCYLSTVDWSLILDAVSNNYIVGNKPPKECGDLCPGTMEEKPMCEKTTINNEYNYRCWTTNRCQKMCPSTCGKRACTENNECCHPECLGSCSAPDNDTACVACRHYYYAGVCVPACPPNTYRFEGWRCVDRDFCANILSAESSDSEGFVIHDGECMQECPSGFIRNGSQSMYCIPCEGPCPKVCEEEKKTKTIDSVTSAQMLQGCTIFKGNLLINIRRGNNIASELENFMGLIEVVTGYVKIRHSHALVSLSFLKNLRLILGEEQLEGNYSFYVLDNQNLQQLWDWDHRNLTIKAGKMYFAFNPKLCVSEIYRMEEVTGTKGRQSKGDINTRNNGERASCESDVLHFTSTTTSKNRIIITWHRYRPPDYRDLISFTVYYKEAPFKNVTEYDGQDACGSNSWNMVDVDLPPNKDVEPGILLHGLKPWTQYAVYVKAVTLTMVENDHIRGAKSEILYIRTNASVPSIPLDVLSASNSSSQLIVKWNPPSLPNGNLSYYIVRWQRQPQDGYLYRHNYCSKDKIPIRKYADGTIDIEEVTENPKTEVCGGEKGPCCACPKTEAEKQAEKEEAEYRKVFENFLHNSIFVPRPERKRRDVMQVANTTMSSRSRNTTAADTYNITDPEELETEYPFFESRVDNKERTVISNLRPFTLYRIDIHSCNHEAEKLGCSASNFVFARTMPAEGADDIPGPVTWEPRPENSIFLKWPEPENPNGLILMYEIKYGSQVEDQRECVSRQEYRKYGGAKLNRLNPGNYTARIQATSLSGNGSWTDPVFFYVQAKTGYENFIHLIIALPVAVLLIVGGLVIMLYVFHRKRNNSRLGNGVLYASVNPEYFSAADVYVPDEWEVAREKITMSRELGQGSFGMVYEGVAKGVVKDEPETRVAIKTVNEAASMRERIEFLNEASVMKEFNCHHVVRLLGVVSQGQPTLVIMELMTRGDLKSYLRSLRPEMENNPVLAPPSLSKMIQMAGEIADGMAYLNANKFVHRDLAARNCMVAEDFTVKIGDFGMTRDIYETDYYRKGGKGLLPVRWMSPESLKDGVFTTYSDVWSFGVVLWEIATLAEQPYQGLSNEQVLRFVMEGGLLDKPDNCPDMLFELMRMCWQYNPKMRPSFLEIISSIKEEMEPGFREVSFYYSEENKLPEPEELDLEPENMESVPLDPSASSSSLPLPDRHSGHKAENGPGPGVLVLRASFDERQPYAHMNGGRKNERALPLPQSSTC
Description: AlphaScreen assays were done using compounds dissolved in DMSO to a concentration of 20 mM. The compounds were diluted accordingly to the desired final concentrations in each sample well, using 1:3 serial dilution for a total of 8 concentration points. Plates were prepared such that each kinase reaction is 20 μl in 1× kinase buffer, 5% DMSO and 10 μM ATP. After incubation of the kinase reaction for 1 hour at room temperature, 5 μl of donor beads in stop buffer (50 mM EDTA in 1× kinase buffer) was added, the sample was mixed and incubated for 20 minutes at room temperature before adding 5 μl of acceptor beads in stop buffer. The samples were incubated for 60 minutes at room temperature and the signal per well was read on AlphaQuest reader.

B-Raf = target: T7, B-Raf (Homo sapiens, UniProt P15056); assay: AlphaScreen kinase assay, B-Raf; details: read-out: IC50, activity toward kinase B-Raf
T7 construct: purchased Upstate Biotechnology

Jnk3 = target: T8, Jnk3 (Homo sapiens, UniProt P53779); assay: AlphaScreen kinase assay, Jnk3; details: read-out: IC50, activity toward kinase Jnk3
T8 construct: purchased Upstate Biotechnology
T8 sequence (P53779 whole entry): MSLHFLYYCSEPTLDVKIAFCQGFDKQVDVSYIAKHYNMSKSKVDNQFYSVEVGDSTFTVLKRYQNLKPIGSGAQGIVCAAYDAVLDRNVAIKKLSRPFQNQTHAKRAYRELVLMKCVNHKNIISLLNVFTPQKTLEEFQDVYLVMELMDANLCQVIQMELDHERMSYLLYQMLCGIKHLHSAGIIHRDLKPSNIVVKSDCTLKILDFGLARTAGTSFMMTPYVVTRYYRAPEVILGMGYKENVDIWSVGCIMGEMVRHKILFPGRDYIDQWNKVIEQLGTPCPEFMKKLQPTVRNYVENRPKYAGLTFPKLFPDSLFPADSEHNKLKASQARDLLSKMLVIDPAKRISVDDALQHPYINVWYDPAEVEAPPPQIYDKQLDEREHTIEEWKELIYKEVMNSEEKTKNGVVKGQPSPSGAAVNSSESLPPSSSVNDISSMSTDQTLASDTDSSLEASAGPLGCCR

FGFR1 = target: T9, FGFR1 (Homo sapiens, UniProt P11362, C488A/C584S); assay: AlphaScreen kinase assay, FGFR1; details: read-out: IC50, activity toward kinase FGFR
T9 construct: P1351.pET N6 BI-PTP FGFR A458-E765-X C488A, C584S; made in house; host or cells: E. coli (PTP1B co-expressed)

Fms = target: T10, Fms (Homo sapiens, UniProt P07333); assay: AlphaScreen kinase assay, Fms; details: read-out: IC50, activity toward kinase Fms
T10 construct: purchased Upstate Biotechnology
T10 sequence (P07333 20-972): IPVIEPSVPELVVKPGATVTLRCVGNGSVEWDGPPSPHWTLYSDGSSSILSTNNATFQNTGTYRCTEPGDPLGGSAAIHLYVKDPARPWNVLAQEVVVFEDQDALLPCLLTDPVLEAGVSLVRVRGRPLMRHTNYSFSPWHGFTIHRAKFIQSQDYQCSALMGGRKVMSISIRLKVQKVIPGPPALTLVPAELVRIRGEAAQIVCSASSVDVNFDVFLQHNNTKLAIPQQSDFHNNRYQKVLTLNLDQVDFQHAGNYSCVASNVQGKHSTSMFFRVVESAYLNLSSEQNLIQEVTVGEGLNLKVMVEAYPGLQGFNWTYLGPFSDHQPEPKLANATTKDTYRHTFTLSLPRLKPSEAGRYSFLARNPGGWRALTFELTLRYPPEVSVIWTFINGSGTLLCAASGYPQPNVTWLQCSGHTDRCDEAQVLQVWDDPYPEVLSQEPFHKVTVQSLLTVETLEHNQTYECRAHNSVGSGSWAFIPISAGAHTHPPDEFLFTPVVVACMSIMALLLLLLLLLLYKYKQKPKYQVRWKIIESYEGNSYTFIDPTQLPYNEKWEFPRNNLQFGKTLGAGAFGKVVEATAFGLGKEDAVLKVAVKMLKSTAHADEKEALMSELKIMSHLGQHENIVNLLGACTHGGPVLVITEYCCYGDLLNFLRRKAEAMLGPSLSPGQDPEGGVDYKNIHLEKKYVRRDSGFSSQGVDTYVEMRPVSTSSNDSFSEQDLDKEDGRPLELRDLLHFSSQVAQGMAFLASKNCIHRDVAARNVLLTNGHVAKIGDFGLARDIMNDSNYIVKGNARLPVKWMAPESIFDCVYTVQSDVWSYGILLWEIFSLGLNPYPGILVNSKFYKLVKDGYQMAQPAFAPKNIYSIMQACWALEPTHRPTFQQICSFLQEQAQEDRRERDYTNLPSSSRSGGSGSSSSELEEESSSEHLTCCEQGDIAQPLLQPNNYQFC

Kit = target: T11, Kit (Homo sapiens, UniProt P10721); assay: AlphaScreen kinase assay, Kit; details: read-out: IC50, activity toward kinase Kit
T11 construct: P1332.N6 BI PTP KIT M552-K948-X COD; His6 (N); made in house; host or cells: E. coli (PTP1B co-expressed)
T11 sequence (P10721 with tags, fused parts or gaps): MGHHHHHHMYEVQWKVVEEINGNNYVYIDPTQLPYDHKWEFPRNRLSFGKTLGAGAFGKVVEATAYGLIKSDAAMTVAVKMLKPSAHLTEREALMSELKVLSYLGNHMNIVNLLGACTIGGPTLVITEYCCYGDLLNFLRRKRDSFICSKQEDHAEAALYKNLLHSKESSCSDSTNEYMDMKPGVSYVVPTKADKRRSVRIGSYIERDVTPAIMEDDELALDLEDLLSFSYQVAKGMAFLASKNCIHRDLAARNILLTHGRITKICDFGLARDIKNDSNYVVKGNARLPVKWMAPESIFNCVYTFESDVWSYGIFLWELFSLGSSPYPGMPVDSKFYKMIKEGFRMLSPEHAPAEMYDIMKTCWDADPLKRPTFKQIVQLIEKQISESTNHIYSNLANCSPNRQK

Kdr = target: T12, Kdr (Homo sapiens, UniProt P35968); assay: Z'-Lyte FRET kinase assay (Invitrogen), Kdr; details: read-out: IC50, activity toward kinase Kdr
T12 construct: purchased Invitrogen (assay run by Invitrogen)
T12 sequence (P35968 20-1356): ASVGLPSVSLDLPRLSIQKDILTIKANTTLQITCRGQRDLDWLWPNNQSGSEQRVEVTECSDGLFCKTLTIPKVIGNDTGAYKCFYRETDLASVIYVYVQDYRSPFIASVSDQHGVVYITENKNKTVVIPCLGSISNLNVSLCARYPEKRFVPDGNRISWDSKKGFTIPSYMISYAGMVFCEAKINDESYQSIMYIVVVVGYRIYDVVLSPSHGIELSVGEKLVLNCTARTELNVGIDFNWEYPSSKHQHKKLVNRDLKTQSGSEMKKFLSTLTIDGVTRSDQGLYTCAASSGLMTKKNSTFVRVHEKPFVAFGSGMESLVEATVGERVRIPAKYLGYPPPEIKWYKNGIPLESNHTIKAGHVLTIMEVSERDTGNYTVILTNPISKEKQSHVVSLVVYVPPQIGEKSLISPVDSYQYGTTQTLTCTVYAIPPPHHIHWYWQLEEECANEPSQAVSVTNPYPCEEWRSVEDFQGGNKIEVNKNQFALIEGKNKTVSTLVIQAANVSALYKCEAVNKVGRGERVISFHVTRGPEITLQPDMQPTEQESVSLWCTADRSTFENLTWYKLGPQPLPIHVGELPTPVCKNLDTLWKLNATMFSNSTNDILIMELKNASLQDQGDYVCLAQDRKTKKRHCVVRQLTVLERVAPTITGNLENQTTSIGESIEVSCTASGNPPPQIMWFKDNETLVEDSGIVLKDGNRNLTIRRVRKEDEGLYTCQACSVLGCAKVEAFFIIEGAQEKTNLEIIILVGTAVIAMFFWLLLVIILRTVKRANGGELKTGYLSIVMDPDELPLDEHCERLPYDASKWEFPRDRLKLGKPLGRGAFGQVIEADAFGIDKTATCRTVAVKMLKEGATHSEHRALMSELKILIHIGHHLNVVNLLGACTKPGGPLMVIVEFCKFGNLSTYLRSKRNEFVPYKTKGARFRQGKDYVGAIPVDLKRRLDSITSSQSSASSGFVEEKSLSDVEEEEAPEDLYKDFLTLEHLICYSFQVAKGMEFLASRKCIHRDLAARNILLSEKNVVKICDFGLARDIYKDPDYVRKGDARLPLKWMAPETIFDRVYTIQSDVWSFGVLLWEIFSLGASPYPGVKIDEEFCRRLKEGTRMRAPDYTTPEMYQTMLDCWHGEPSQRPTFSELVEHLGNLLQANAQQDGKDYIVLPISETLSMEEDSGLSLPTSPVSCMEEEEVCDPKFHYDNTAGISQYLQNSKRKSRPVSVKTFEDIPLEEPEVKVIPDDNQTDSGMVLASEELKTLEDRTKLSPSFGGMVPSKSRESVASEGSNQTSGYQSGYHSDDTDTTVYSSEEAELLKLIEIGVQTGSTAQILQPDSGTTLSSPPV

Stk6 = target: T13, Stk6 (Homo sapiens, UniProt O14965); assay: Z'-Lyte FRET kinase assay (Invitrogen), Stk6; details: read-out: IC50, activity toward kinase Stk6
T13 construct: purchased Invitrogen (Carlsbad, Calif.), screening service
T13 sequence (O14965 1-403): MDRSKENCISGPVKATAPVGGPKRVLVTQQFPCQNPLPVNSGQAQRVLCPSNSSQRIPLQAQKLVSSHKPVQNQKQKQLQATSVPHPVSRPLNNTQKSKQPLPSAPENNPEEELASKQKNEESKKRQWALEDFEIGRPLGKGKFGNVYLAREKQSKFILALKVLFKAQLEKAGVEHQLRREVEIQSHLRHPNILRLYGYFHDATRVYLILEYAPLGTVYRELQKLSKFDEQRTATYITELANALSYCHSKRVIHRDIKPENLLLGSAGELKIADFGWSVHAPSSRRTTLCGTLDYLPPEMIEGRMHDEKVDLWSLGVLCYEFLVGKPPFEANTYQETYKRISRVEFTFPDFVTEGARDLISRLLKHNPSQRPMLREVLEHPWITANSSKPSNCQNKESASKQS

IKK beta = target: T14, IKK beta (Homo sapiens, UniProt O14920); assay: AlphaScreen kinase assay, IKK beta; details: read-out: IC50, activity toward kinase IKK beta
T14 sequence (O14920 1-756): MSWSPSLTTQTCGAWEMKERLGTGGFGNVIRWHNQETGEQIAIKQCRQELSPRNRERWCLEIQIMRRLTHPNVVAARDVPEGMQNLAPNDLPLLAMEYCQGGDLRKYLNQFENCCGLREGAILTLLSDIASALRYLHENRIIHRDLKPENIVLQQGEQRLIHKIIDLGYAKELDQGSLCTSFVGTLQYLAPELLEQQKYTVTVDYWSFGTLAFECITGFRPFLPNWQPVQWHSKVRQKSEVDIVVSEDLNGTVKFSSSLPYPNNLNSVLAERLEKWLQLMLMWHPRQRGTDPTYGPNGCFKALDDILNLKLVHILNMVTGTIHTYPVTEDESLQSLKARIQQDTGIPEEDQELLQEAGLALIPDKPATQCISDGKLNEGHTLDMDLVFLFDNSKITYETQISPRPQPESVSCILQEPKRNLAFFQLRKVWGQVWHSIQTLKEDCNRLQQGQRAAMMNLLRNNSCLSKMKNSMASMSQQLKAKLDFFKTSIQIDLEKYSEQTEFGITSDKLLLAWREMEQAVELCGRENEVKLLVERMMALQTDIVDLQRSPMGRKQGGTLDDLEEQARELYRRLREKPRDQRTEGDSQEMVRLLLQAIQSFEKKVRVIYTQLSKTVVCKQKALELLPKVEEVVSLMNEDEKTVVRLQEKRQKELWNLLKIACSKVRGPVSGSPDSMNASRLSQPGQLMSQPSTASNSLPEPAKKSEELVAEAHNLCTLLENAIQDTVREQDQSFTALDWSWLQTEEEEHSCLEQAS

Jak3 = target: T15, Jak3 (Homo sapiens, UniProt P52333); assay: AlphaScreen kinase assay, Jak3; details: read-out: IC50, activity toward kinase Jak3
T15 sequence (P52333 1-1124): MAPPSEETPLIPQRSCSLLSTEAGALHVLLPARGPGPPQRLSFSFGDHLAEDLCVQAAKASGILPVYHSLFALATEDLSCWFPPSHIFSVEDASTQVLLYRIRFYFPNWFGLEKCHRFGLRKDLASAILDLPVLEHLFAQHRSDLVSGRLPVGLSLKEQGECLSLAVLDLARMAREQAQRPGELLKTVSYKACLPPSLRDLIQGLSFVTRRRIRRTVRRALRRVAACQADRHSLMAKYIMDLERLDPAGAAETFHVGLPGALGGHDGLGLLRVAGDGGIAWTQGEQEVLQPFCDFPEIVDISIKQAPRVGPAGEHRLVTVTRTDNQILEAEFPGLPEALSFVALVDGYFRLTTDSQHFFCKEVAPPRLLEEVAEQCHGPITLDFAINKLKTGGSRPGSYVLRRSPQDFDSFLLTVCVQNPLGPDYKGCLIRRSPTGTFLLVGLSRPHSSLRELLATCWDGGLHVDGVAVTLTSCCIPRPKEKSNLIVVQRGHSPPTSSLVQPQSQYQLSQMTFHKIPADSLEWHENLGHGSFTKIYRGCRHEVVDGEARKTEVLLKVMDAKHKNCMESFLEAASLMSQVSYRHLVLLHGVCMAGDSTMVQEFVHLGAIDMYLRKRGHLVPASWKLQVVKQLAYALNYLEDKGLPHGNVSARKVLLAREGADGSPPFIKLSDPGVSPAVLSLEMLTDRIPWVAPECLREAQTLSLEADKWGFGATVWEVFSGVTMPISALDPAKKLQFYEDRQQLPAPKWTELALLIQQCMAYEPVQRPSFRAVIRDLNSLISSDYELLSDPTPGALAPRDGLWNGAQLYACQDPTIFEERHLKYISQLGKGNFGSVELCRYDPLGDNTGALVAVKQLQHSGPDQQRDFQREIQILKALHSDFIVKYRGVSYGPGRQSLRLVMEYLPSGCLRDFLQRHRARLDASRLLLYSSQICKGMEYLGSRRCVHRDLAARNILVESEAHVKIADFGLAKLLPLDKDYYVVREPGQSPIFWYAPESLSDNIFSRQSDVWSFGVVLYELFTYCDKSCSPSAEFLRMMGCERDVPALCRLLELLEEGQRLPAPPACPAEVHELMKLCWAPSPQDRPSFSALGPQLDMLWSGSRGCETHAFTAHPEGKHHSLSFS
Method in brief: as §1

Measured: IC50

CS(=O)(=O)Nc1cccc(-c2cnc3[nH]cc(C(=O)c4cc(O)ccc4F)c3c2)c1 [Compound P-0716, N-{3-[3-(2-Fluoro-5-hydroxy-benzoyl)-1H-pyrrolo[2,3-b]pyridin-5-yl]-phenyl}-methanesulfonamide]
≤ 10 µM: Ret | Itk | c-Raf-1 | B-Raf V600E | Zap70 | Met | IGF1R | B-Raf | Jnk3

CS(=O)(=O)Nc1cccc(-c2cnc3[nH]ccc3c2)c1 [Compound P-1337]
≤ 10 µM: FGFR1 | Itk | Fms | IGF1R

CC(=O)Nc1cccc(-c2cnc3[nH]ccc3c2)c1 [Compound P-0115]
≤ 10 µM: Kit | Ret | IGF1R | Kdr | Stk6 | IKK beta | Jnk3

OCc1cccc(-c2ccnc3[nH]ccc23)c1 [Compound P-0084]
≤ 10 µM: Jak3 | IGF1R | Kdr | IKK beta
